Here are results for two substances from PMC5814047, “Peptidic inhibitors of insulin-degrading enzyme with potential for dermatological applications discovered via phage display” (PLoS ONE, 2018).

Assay [1] concerns the target T1, IDE (Homo sapiens, UniProt P14735).
T1 construct: made in house; host or cells: bacteria
T1 sequence (P14735 1-1019): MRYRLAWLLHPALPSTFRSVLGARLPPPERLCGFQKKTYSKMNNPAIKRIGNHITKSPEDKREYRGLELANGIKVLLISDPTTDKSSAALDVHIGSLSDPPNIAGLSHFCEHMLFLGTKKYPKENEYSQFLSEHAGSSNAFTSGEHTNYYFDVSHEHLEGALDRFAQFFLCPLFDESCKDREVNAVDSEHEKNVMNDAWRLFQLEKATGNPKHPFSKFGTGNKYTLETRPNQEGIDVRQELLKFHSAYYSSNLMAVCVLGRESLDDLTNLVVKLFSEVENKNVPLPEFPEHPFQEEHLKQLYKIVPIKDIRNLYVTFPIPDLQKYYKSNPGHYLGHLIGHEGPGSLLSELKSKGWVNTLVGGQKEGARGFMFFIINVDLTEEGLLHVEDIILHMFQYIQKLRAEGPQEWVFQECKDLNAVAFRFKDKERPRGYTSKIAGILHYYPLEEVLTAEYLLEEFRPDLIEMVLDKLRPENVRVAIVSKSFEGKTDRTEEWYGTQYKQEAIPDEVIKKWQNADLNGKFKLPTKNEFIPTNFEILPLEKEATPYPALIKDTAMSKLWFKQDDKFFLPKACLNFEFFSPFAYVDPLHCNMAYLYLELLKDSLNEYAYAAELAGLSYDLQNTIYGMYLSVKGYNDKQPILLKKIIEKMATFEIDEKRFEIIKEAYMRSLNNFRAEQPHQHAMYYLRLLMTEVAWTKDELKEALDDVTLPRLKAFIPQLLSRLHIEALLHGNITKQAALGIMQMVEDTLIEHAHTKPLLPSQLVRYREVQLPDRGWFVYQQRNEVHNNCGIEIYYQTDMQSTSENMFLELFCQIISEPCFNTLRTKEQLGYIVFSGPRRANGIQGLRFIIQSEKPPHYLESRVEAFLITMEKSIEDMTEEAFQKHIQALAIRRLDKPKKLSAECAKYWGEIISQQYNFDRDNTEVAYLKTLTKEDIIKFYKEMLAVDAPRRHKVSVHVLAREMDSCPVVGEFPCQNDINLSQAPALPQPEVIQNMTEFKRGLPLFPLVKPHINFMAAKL
Kind of assay: biochemical. The conditions noted are these: for Percent activity at 500 uM, Mean: N 4; for IC50: dose-response, FRET1. An outline of the steps:
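Recombinant human IDE (1 nM, bacterially expressed) degraded FRET1 substrate (5 μM), fluoresceinated biotinylated amyloid β (500 nM) or human insulin (50 nM) in PBS with 0.05% BSA. Peptides tested included N-acetylated and C-amidated variants.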

For assay [2], the target named is T1, IDE. The assay can be described thus: biochemical. The conditions noted are these: for IC50: insulin ELISA assay, dose-response. An outline of the steps: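 Bacterially expressed recombinant human IDE (1 nM) in PBS with 0.05% BSA. Substrates: FRET1 (5 μM; fluorescence, ex 340/em 420 nm), fluoresceinated biotinylated amyloid β-protein (500 nM; fluorescence polarization, ex 488/em 525 nm), or recombinant human insulin (50 nM; ELISA).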

In assay [3] the target is T1, IDE. Kind of assay: Vulnerability of peptides to degradation by IDE: 0 vs 4 h pre-incubation, then FRET1 assay. The format is biochemical. The conditions noted are these: for IC50: FRET1 assay. As for the experimental part: IDE activity was quantified by monitoring the degradation of Mca-[…](Dnp) (FRET1, 5 μM), fluoresceinated and biotinylated amyloid ß-protein (FAßB; 500 nM) or recombinant human insulin (50 nM) in PBS supplemented with 0.05% BSA. […] In vitro activity assays incorporated recombinant human IDE (1 nM) purified from bacteria. For quantitation of insulin degradation in primary murine skin fibroblasts, cells (1 x 10^5/well) were plated in 96-well plates and maintained in DMEM supplemented with 10% fetal bovine serum (FBS), 2mM glutamine, penicillin and streptomycin. After addition of insulin (10 nM or 100 nM), samples of conditioned medium were removed daily and quickly frozen, then insulin levels were quantified in parallel by ELISA according to manufacturer’s recommendations (Crystal Chem, Downers Grove, IL, USA). Assessment of the activity of P12-3A against a variety of matrix-metalloproteases was conducted using the Matrix Metalloproteinase (MMP) Inhibitor Profiling Kit, Fluorometric RED (Enzo Life Sciences, Inc., Farmingdale, NY, USA) according to manufacturer’s recommendations using the broad-spectrum MMP inhibitor, NNGH, as a positive control.

Setting [4] is: peptide at 10 uM, insulin 100 nM, normalized to DMSO-only and no-enzyme controls.

Where “and” joins values, the source holds several entries; their conditions need not be identical. Identical values can stand only once. Ends that are not written are not given here.

For the substance WCYPHCVT [P12-3C], the “Percent activity at 500 uM, Mean” value in assay [1] (initial test, percent of initial velocity relative to DMSO-only controls) is reported as 6.4%; in assay [1] (judged as IC50 <100 uM?) it was 29.8%. In addition, the “percent decrease in insulin detected by ELISA, Replicate 1” value in assay [2] (setting [4]) is 111.9%. The “percent decrease in insulin detected by ELISA, Replicate 2” value in assay [2] (setting [4]) came out at 145.7%. The “percent decrease in insulin detected by ELISA, Replicate 3” value in assay [2] (setting [4]) is recorded as 105.6%. In assay [2] (setting [4]), the “percent decrease in insulin detected by ELISA, Replicate 4” value was found to be 114.6%. In addition, the “percent decrease in insulin detected by ELISA, Mean” value in assay [2] (peptide at 10 uM, insulin 100 nM, normalized to DMSO-only and no-enzyme controls, N=4) turned out to be 119.5%. The “Percent Activity (normalized initial velocity of FRET1 hydrolysis)” value is 87.1275% and 89.107% and 97.5567% in assay [3] (0-hr incubation, Cmpd 0.12207 uM, relative to DMSO-only controls, individual runs); 88.274% and 92.2277% and 96.9846% in assay [3] (0-hr incubation, Cmpd 0.488281 uM, relative to DMSO-only controls, individual runs); 91.5093% and 89.6687% and 99.5643% in assay [3] (0-hr incubation, Cmpd 1.95312 uM, relative to DMSO-only controls, individual runs); 83.3253% and 88.0997% and 90.5388% in assay [3] (0-hr incubation, Cmpd 7.8125 uM, relative to DMSO-only controls, individual runs); 61.5604% and 65.1463% and 71.7432% in assay [3] (0-hr incubation, Cmpd 31.25 uM, relative to DMSO-only controls, individual runs); 22.5624% and 28.2506% and 30.6967% in assay [3] (0-hr incubation, Cmpd 125 uM, relative to DMSO-only controls, individual runs). Moreover, the “Percent Activity (normalized initial velocity of FRET1 hydrolysis)” value was 2.879% and 4.537% and 8.696% in assay [3] (0-hr incubation, Cmpd 500 uM, relative to DMSO-only controls, individual runs); 96.239% and 102.101% in assay [3] (4-hr incubation, Cmpd 0.12207 uM, relative to DMSO-only controls, individual runs); 100.910% and 100.775% in assay [3] (4-hr incubation, Cmpd 0.488281 uM, relative to DMSO-only controls, individual runs); 100.923% and 102.486% in assay [3] (4-hr incubation, Cmpd 1.95312 uM, relative to DMSO-only controls, individual runs); 97.345% and 105.750% in assay [3] (4-hr incubation, Cmpd 7.8125 uM, relative to DMSO-only controls, individual runs); 94.256% and 100.607% in assay [3] (4-hr incubation, Cmpd 31.25 uM, relative to DMSO-only controls, individual runs). Also, the “Percent Activity (normalized initial velocity of FRET1 hydrolysis)” value in assay [3] (4-hr incubation, Cmpd 125 uM, relative to DMSO-only controls, individual runs) was 90.993% and 91.075%; in assay [3] (4-hr incubation, Cmpd 500 uM, relative to DMSO-only controls, individual runs), 24.626% and 23.530%.
Turning to WSPISGKFFQRF-NH2 [P12-4A], the Ki in assay [1] (Cheng-Prusoff, KM 10 uM, substrate concentration 5 uM, read-out: Ki values, Mean) came out at 4.25 µM; in assay [1] (substrate FRET1 5 μM, Ki from IC50 with the Cheng-Prusoff equation, read-out: Ki FRET1), 4.2 ± 1.3 µM; in assay [2] (substrate recombinant human insulin 50 nM, Ki from IC50 with the Cheng-Prusoff equation) it was 2.6 ± 0.7 µM; in assay [3] (4-hr incubation, Cheng-Prusoff from IC50, FRET1 KM 10 uM, substrate 5 uM) it was 43.5 µM. In addition, the IC50 in assay [1] (individual runs, read-out: IC50s, Run 1-6) is 6.41 µM and 2.96 µM and 9.75 µM; in assay [1] (read-out: IC50s, Mean) it was 6.37 µM; in assay [2] (Replicates 1-3, read-out: IC50s, individual replicates) it was 6.44 µM and 6.45 µM and 2.48 µM; in assay [2] (N=3, read-out: IC50s, Mean), 5.12 µM; in assay [3] (4-hr incubation, individual replicates, read-out: IC50s), 63.7 µM and 66.6 µM; in assay [3] (4-hr incubation, mean of 2 replicates, read-out: IC50s, Mean), 65.2 µM. The “IC50 <500 uM?” value in assay [1] (initial test at 500 uM) was “YES”. Also, the remaining activity at 500 µM in assay [1] (judged as IC50 <100 uM?, individual replicates, read-out: Percent activity at 500 uM, Replicate 1-4) came out at 17.7%; in assay [3] (4 h, 4-hr incubation, Cmpd 500 uM, relative to DMSO-only controls, individual runs, read-out: Percent Activity (normalized initial velocity of FRET1 hydrolysis)), 27.1%. Besides, the “IC50 <10 uM?” value in assay [2] (initial test at 10 uM using insulin (100 nM)) is on record as “YES”. The remaining activity at 0.12207 µM in assay [3] (4 h, 4-hr incubation, Cmpd 0.12207 uM, relative to DMSO-only controls, individual runs, read-out: Percent Activity (normalized initial velocity of FRET1 hydrolysis)) stood at 78.9%. Besides, in assay [3] (4 h, 4-hr incubation, Cmpd 0.488281 uM, relative to DMSO-only controls, individual runs, read-out: Percent Activity (normalized initial velocity of FRET1 hydrolysis)), the remaining activity at 0.488281 µM was found to be 81.8%. Moreover, the remaining activity at 1.95312 µM in assay [3] (4 h, 4-hr incubation, Cmpd 1.95312 uM, relative to DMSO-only controls, individual runs, read-out: Percent Activity (normalized initial velocity of FRET1 hydrolysis)) is 85.3%. Also, in assay [3] (4 h, 4-hr incubation, Cmpd 7.8125 uM, relative to DMSO-only controls, individual runs, read-out: Percent Activity (normalized initial velocity of FRET1 hydrolysis)), the remaining activity at 7.8125 µM worked out at 83.2%. The remaining activity at 31.25 µM in assay [3] (4 h, 4-hr incubation, Cmpd 31.25 uM, relative to DMSO-only controls, individual runs, read-out: Percent Activity (normalized initial velocity of FRET1 hydrolysis)) came to 35.7%. In addition, in assay [3] (4 h, 4-hr incubation, Cmpd 125 uM, relative to DMSO-only controls, individual runs, read-out: Percent Activity (normalized initial velocity of FRET1 hydrolysis)), the remaining activity at 125 µM stood at 51.3%.

The Ki is the equilibrium dissociation constant of an inhibitor or competing ligand from its target.
